Common to all, as to format: functional
The subject of assay [1] is Staphylococcus aureus. Kind of assay: Antibacterial activity against Staphylococcus aureus ATCC 25923 at 100 mg/mL after 24 hrs by disc diffusion method. In general terms: Agar diffusion results depend on both activity and mobility in agar.
In assay [2] the test system is Staphylococcus epidermidis. Kind of assay: Antibacterial activity against Staphylococcus epidermidis at 100 mg/mL after 24 hrs by disc diffusion method.
For assay [3], the system named is Streptococcus pyogenes. Kind of assay: Antibacterial activity against Streptococcus pyogenes at 100 mg/mL after 24 hrs by disc diffusion method.
The subject of assay [4] is Escherichia coli. As to the kind of experiment: Antibacterial activity against Escherichia coli ATCC 25922 at 100 mg/mL after 24 hrs by disc diffusion method.
The subject of assay [5] is Staphylococcus aureus. As to the kind of experiment: Antibacterial activity against Staphylococcus aureus ATCC 25923 at 200 mg/mL after 24 hrs by disc diffusion method.
Assay [6] relates to Staphylococcus epidermidis. As to the kind of experiment: Antibacterial activity against Staphylococcus epidermidis at 200 mg/mL after 24 hrs by disc diffusion method.
The subject of assay [7] is Streptococcus pyogenes. Kind of assay: Antibacterial activity against Streptococcus pyogenes at 200 mg/mL after 24 hrs by disc diffusion method.
Assay [8] deals with Escherichia coli. Kind of assay: Antibacterial activity against Escherichia coli ATCC 25922 at 200 mg/mL after 24 hrs by disc diffusion method.

For six compounds, Inhibition results are on record in ChEMBL document CHEMBL1149623, “Identification of antibacterial and antiviral activities of novel fused 1,2,4-triazine esters” (2007).

With `COC(=O)CC1NN=C2N(CCN2c2ccc(Cl)cc2)C1=O` (centres undefined), the Inhibition in the assay on Staphylococcus aureus [1] is reported as 10 mm; in assay [2] it was 16 mm; in the assay with Streptococcus pyogenes [3], 16 mm; in the assay on Escherichia coli [4] it was less than 9 mm.
As for `CCOC(=O)CC1NN=C2N(CCN2c2ccc(OC)cc2)C1=O` (centres undefined), the Inhibition in the assay on Staphylococcus aureus [1] is reported as less than 9 mm; in assay [2], less than 9 mm; in the assay with Streptococcus pyogenes [3] it was greater than 20 mm; in the assay on Escherichia coli [4], 16 mm.
Turning to `CCOC(=O)CC1NN=C2N(CCN2c2cccc(Cl)c2)C1=O` (centres undefined), the Inhibition with Staphylococcus aureus [1] is 10 mm; in assay [2], less than 9 mm; in the assay on Streptococcus pyogenes [3], greater than 20 mm; with Escherichia coli [4] it was greater than 20 mm.
For the compound `COC(=O)CC1NN=C2N(CCN2c2ccccc2)C1=O` (centres undefined), the Inhibition with Staphylococcus aureus [1] is recorded as 10 mm; in assay [2], 16 mm; with Streptococcus pyogenes [3], greater than 20 mm; with Escherichia coli [4] it was less than 9 mm.
Taken in the same sequence, the figures for `COC(=O)CC1NN=C2N(CCN2c2ccc(OC)cc2)C1=O` (centres undefined) were 10 mm, 16 mm, greater than 20 mm and greater than 20 mm.
In the case of `CC1(C)S[C@@H]2[C@H](NC(=O)[C@H](N)c3ccccc3)C(=O)N2[C@H]1C(=O)O` [AMPICILLIN], the Inhibition in the assay with Staphylococcus aureus [5] amounted to 16 mm; in assay [6] it was 10 mm; in the assay with Streptococcus pyogenes [7] it was 16 mm; in the assay with Escherichia coli [8] it was 16 mm.
